Among the data in paper doi:10.1101/2024.10.14.618300v1 (biorxiv, 2024) are Kd and Ki values, retold here.

The target of experiment [1] is T1, mTSPO (recombinant mouse translocator protein) (Mus musculus, UniProt P50637). Nature of the experiment: […] NMR chemical shift titration. It is filed as binding.
The target of experiment [2] is T1, mTSPO (recombinant mouse translocator protein). Nature of the experiment: […] NMR competition with RF3458. The experiment is classed as binding.

In general, Kd refers to the constant that tells how readily two partners part at equilibrium. On to `CN(C(=O)[C@H](Cc1ccc(F)cc1)NC(=O)c1ccccc1)c1ccccc1` [4b, RF3458], for which, in experiment [1], the dissociation constant Kd was about 5 µM. Usually Ki stands for a measure of affinity in units of concentration, obtained from inhibition or displacement. Turning to `CC[C@@H](C)N(C)C(=O)c1cc2ccccc2c(-c2ccccc2Cl)n1` [(R)-PK 11195, 1-(2-Chlorophenyl)-N-methyl-N-(1-methylpropyl)-3-isoquinolinecarboxamide], the inhibition constant (Ki) in experiment [2] was about 90 µM.
